What all share (assay): Competitive isoTOP-ABPP, cell lysates
Holding throughout (assay type): binding
What all share (conditions): 500 μm, in-vitro_ramos_231

The target of test [1] is PRMT1 C109 (Q99873) (Homo sapiens, UniProt Q99873). The protocol: (§1) TEV digests were pressure loaded onto a 250 μm (inner diameter) fused silica capillary column packed with C18 resin (Aqua 5 μm, Phenomenex). The samples were analyzed by multidimensional liquid chromatography tandem mass spectrometry (MudPIT), using an LTQ-Velos Orbitrap mass spectrometer (Thermo Scientific) coupled to an Agilent 1200-series quaternary pump. The peptides were eluted onto a biphasic column with a 5 μm tip (100 μm fused silica, packed with C18 (10 cm) and bulk strong cation exchange resin (3 cm, SCX, Phenomenex,)) in a 5-step MudPIT experiment, using 0%, 30%, 60%, 90%, and 100% salt bumps of 500 mM aqueous ammonium acetate and using a gradient of 5-100% buffer B in buffer A (buffer A: 95% water, 5% acetonitrile, 0.1% formic acid; buffer B: 5% water, 95% acetonitrile, 0.1% formic acid) as has been described in Weerapana et al. Nat Protoc 2:1414-1425 (2007). Data was collected in data-dependent acquisition mode with dynamic exclusion enabled (20 s, repeat of 2). One full MS (MS1) scan (400-1800 m/z) was followed by 30 MS2 scans (ITMS) of the nth most abundant ions.
(§2) The ratios of heavy/light for each unique peptide (DMSO/compound treated; isoTOP-ABPP ratios, R values) were quantified with in-house CIMAGE software, using default parameters (3 ms s per peak and signal to noise threshold 2.5). Site-specific engagement of electrophilic fragments was assessed by blockade of IA-alkyne probe labeling. […] Ratios for unique peptide entries were calculated for each experiment; overlapping peptides with the same modified cysteine (e.g. different charge states, MudPIT chromatographic steps or tryptic termini) were grouped together and the median ratio was reported as the final ratio (R). The peptide ratios reported by CIMAGE were further filtered to ensure the removal or correction of low quality ratios in each individual dataset. The quality filters applied were the following: removal of half tryptic peptides; for ratios with high standard deviations from the median (90% of the median or above) the lowest ratio was taken instead of the median; removal of peptides with R=20 and only a single ms2 event triggered during the elution of the parent ion; manual annotation of all the peptides with ratios of 20, removing any peptides with low-quality elution profiles that remained after the previous curation steps. Proteome reactivity values for individual fragments were computed as the percentage of the total quantified cysteine-containing peptides with R values≥4 (defined as liganded cysteines) for each replicate experiment and the final proteome reactivity value was calculated as the mean for all replicate experiments for each fragment from both MDA-MB-231 and Ramos cellular proteomes.
(§3) Biological replicates of the same compound and cell-line were averaged if the standard deviation was below 60% of the mean; otherwise the lowest value of the ratio set was taken.

The target in test [2] is GNB2L1 C182 (P63244) (Homo sapiens, UniProt P63244). The protocol: as §1, §2, §3
Test [3] concerns the target ZNF217 C286 (O75362) (Homo sapiens, UniProt O75362). The protocol: as §1, §2, §3
Test [4] has as its target T1, PDIA6 C190 (Q15084) (Homo sapiens, UniProt Q15084).
T1 sequence (Q15084 20-440): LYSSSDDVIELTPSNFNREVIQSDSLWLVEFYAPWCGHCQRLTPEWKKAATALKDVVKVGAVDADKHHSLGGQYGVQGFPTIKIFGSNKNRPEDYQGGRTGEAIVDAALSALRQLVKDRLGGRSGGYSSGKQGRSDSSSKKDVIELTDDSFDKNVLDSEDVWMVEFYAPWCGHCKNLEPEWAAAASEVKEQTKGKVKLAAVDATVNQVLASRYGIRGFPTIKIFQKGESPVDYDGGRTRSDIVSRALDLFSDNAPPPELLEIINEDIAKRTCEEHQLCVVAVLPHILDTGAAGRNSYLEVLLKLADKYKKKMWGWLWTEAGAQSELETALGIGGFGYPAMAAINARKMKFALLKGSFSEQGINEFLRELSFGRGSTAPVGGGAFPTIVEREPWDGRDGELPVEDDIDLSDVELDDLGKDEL
How it is done: as §1, §2, §3

Test [5] deals with T2, PDIA6 C55 (Q15084) (Homo sapiens, UniProt Q15084).
T2 sequence (Q15084 20-440): T1 sequence (Q15084 20-440)
How it is done:
as §1, §2, §3

In test [6] the target is XPO1 C34 (O14980) (Homo sapiens, UniProt O14980). How it is done: as §1, §2, §3
Test [7] addresses SAMHD1 C522 (Q9Y3Z3) (Homo sapiens, UniProt Q9Y3Z3). The protocol: as §1, §2, §3
In test [8] the target is SMARCC2 C145 (Q8TAQ2) (Homo sapiens, UniProt Q8TAQ2). The protocol:
as §1, §2, §3

Test [9] addresses UBE2L3 C86 (P68036) (Homo sapiens, UniProt P68036). How it is done:
as §1, §2, §3

Test [10] addresses GSTP1 C48 (P09211) (Homo sapiens, UniProt P09211). How it is done:
as §1, §2, §3

The target of test [11] is T3, UBE2S C118 (Q16763) (Homo sapiens, UniProt Q16763).
T3 sequence (Q16763 1-222): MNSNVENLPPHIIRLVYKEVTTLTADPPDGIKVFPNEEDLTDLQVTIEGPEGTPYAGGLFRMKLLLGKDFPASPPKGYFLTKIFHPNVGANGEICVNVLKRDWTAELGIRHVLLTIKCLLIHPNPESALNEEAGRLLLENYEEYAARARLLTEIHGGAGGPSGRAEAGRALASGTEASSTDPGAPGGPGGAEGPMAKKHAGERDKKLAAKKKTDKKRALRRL
The protocol:
as §1, §2, §3

The target of test [12] is T4, PDE12 C108 (Q6L8Q7) (Homo sapiens, UniProt Q6L8Q7).
T4 sequence (Q6L8Q7 43-609): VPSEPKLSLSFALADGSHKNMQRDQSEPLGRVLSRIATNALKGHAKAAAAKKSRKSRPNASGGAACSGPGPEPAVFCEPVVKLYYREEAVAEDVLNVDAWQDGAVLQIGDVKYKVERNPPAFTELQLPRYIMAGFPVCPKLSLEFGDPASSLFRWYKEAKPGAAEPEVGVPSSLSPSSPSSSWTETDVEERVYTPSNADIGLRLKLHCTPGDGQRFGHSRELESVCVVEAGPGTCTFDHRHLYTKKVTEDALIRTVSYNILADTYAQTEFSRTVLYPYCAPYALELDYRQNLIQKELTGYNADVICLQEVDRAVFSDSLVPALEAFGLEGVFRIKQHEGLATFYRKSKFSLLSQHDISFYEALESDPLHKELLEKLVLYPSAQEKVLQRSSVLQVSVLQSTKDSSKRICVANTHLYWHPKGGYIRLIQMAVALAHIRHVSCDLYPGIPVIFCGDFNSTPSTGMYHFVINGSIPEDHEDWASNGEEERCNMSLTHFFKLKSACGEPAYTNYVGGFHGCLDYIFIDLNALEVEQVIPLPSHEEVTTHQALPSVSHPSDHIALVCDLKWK
The protocol:
as §1, §2, §3

The target of test [13] is T5, ACAT1 C413 (P24752) (Homo sapiens, UniProt P24752).
T5 sequence (P24752 34-427): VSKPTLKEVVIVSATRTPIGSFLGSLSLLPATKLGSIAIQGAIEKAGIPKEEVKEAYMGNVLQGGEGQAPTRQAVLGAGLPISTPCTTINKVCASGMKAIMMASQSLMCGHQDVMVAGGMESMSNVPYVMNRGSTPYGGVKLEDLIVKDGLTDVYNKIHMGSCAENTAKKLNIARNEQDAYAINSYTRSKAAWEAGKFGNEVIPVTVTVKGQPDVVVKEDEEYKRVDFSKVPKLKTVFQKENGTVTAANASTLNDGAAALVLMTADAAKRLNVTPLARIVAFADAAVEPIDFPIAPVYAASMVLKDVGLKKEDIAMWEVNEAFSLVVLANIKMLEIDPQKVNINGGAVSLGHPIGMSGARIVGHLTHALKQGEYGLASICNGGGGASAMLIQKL

Test [14] deals with T6, ACAT1 C119 (P24752) (Homo sapiens, UniProt P24752).
T6 sequence (P24752 34-427): T5 sequence (P24752 34-427)

For test [15], the target named is T7, ACAT1 C196 (P24752) (Homo sapiens, UniProt P24752).
T7 sequence (P24752 34-427): T5 sequence (P24752 34-427)

The target of test [16] is T8, AIP C122 (O00170) (Homo sapiens, UniProt O00170).
T8 sequence (O00170 1-330): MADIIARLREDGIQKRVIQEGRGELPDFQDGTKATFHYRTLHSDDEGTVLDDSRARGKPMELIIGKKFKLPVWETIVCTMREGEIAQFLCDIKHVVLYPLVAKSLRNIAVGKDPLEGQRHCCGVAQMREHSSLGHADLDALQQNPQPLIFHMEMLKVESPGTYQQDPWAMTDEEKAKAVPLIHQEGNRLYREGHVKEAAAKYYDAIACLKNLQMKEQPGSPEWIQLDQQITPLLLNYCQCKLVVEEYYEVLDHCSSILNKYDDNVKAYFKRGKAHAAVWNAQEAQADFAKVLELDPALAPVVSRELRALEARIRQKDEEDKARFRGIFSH
How it is done:
as §1, §2, §3

The target in test [17] is LRBA C1704 (P50851) (Homo sapiens, UniProt P50851). The protocol: as §1, §2, §3
Test [18] has as its target T9, ACAT1 C126 (P24752) (Homo sapiens, UniProt P24752).
T9 sequence (P24752 34-427): T5 sequence (P24752 34-427)

Here are results for two compounds from patent US10670605B2, “Cysteine reactive probes and uses thereof” (The Scripps Research Institute, priority 2015, dated 2020).
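Throughout, for isoTOP-ABPP reactivity profile ratio, O00170 C122: Heavy/light ratio DMSO over fragment-treated so higher means more cysteine engagement.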
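Throughout, for isoTOP-ABPP reactivity profile ratio, P68036 C86: Heavy/light ratio DMSO over fragment-treated so higher means more cysteine engagement.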
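Throughout, for isoTOP-ABPP reactivity profile ratio, Q15084 C190: Heavy/light ratio DMSO over fragment-treated so higher means more cysteine engagement.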
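Throughout, for isoTOP-ABPP reactivity profile ratio, Q99873 C109: Heavy/light ratio DMSO over fragment-treated so higher means more cysteine engagement.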

Regarding `COC(=O)C1Cc2ccccc2CN1C(=O)CCl` (stereo not shown) [compound 39], the “isoTOP-ABPP reactivity ratio, Q99873_C109” value in test [1] was 1.5. Also, the “isoTOP-ABPP reactivity ratio, P63244_C182” value in test [2] is given as 1.0. For the same compound, the “isoTOP-ABPP reactivity ratio, O75362_C286” value in test [3] came out at 20.0. Further, the “isoTOP-ABPP reactivity ratio, Q15084_C190” value in test [4] came to 7.0. Moreover, the “isoTOP-ABPP reactivity ratio, Q15084_C55” value in test [5] is given as 3.9. Also, in test [6], the “isoTOP-ABPP reactivity ratio, O14980_C34” value worked out at 1.3. Moreover, the “isoTOP-ABPP reactivity ratio, Q9Y3Z3_C522” value in test [7] is on record as 1.1. For the same compound, the “isoTOP-ABPP reactivity ratio, Q8TAQ2_C145” value in test [8] came out at 1.2. In addition, the “isoTOP-ABPP reactivity ratio, P68036_C86” value in test [9] came out at 1.9. Also, in test [10], the “isoTOP-ABPP reactivity ratio, P09211_C48” value stood at 2.0. The “isoTOP-ABPP reactivity ratio, Q16763_C118” value in test [11] was 1.4. The “isoTOP-ABPP reactivity ratio, Q6L8Q7_C108” value in [12] was 3.2. For the same compound, the “isoTOP-ABPP reactivity ratio, P24752_C413” value in test [13] came out at 2.7. The “isoTOP-ABPP reactivity ratio, P24752_C119” value in [14] turned out to be 1.7. Further, in test [15], the “isoTOP-ABPP reactivity ratio, P24752_C196” value came to 3.0.

Turning to `Cc1ccc(C(F)(F)F)cc1NC(=O)CCl` [compound 49], the “isoTOP-ABPP reactivity profile ratio, O00170_C122” value in test [16] was determined as 4.8. Also, in [1], the “isoTOP-ABPP reactivity profile ratio, Q99873_C109” value was determined as 2.0. Further, the “isoTOP-ABPP reactivity profile ratio, O75362_C286” value in [3] is recorded as 1.0. In addition, in [4], the “isoTOP-ABPP reactivity profile ratio, Q15084_C190” value was found to be 7.7. Moreover, in [5], the “isoTOP-ABPP reactivity profile ratio, Q15084_C55” value came out at 12.8. Besides, the “isoTOP-ABPP reactivity profile ratio, O14980_C34” value in [6] was found to be 1.9. Further, the “isoTOP-ABPP reactivity profile ratio, P50851_C1704” value in test [17] is reported as 4.0. Besides, in [7], the “isoTOP-ABPP reactivity profile ratio, Q9Y3Z3_C522” value is 3.0. For the same compound, in [9], the “isoTOP-ABPP reactivity profile ratio, P68036_C86” value is given as 1.9. In addition, the “isoTOP-ABPP reactivity profile ratio, P24752_C413” value in test [13] is given as 2.6. Besides, the “isoTOP-ABPP reactivity profile ratio, P24752_C119” value in test [14] is on record as 4.9. In test [15], the “isoTOP-ABPP reactivity profile ratio, P24752_C196” value is reported as 4.7. In addition, in test [18], the “isoTOP-ABPP reactivity profile ratio, P24752_C126” value turned out to be 20.0.
